In patent publication US9809623B2, “α4β7 peptide monomer and dimer antagonists” (Protagonist Therapeutics, Inc., priority 2014, dated 2017):
pIC50: −log10 of the molar value. Numbered stars: 1 amine (or outer) side, 2 acyl side, 3 side chain; on linkers, the order of the positions; unused ones are H or OH. Bridge positions count the residues as written; N and C are the ends. Square brackets hold non-standard residues; d marks the D form. Peptide text beside a SMILES is read from it. I, II: the chains in the order shown. Phe(4-COOH) = N[C@@H](Cc1ccc(C(=O)O)cc1)C(=O)O; Phe(4-tBu) = CC(C)(C)c1ccc(C[C@H](N)C(=O)O)cc1; 2Nal = N[C@@H](Cc1ccc2ccccc2c1)C(=O)O; Diglycolyl = O=C(COCC(=O)[*:2])[*:1]; NMeR = CN[C@@H](CCCNC(=N)N)C(=O)O; β3hE = N[C@@H](CCC(=O)O)CC(=O)O; Pen = CC(C)(S)[C@H](N)C(=O)O; hLeu = CC(C)CC[C@H](N)C(=O)O; Dap = NC[C@H](N)C(=O)O

Target: α4β7 (Homo sapiens, UniProt P13612+P26010)
Sequence (P13612 34-1032): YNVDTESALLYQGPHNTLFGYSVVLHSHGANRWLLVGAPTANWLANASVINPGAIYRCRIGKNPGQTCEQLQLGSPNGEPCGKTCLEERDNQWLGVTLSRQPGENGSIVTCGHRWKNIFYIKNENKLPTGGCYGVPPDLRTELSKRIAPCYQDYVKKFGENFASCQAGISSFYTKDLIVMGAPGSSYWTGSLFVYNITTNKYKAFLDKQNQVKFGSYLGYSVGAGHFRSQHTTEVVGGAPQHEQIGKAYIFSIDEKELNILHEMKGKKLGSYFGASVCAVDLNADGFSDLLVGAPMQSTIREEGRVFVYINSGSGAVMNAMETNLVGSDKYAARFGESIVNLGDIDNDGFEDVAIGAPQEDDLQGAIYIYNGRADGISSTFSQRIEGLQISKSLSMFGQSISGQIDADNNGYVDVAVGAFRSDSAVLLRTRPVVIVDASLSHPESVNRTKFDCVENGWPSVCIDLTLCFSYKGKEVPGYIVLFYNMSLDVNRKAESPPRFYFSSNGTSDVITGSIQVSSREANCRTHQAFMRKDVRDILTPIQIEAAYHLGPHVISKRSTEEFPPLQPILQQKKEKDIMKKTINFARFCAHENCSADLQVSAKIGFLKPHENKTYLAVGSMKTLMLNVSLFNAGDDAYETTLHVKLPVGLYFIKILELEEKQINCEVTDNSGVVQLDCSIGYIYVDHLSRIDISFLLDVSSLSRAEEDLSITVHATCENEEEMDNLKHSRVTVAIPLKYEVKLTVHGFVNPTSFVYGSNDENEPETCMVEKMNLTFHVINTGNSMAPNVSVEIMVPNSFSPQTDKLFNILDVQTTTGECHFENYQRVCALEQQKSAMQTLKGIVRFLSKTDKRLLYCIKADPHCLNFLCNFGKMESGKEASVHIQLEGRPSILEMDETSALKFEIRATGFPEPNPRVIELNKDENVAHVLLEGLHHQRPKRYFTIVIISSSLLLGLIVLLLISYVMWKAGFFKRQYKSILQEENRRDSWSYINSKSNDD
Sequence (P26010 20-798): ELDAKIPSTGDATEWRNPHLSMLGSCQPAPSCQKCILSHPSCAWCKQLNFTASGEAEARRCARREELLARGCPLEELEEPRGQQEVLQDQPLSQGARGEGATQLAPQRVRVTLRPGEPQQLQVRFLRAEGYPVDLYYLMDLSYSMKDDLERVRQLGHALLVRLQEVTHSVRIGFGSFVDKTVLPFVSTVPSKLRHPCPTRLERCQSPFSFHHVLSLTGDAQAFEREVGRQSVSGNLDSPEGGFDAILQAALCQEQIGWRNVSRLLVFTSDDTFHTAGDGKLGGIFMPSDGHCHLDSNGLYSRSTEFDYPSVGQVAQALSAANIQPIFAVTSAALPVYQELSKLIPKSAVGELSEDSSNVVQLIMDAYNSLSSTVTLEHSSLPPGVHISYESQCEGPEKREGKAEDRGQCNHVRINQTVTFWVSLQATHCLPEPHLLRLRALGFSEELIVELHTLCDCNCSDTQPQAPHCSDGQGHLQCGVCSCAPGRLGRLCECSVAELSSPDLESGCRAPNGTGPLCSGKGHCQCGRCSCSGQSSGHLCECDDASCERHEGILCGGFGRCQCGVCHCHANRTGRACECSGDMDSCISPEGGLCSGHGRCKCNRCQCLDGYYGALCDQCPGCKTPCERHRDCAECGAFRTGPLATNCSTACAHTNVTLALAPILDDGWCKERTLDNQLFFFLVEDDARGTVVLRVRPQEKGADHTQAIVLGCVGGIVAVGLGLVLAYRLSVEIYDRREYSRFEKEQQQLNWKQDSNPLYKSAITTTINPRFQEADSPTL
Assay: α4β7-MAdCAM Cell Adhesion Assay (RPMI 8866 human cells)
Assay type: cell-based
Design: host or cells: RPMI 8866 human B lymphoblastoid cells
Conditions: Table 3-B, Potency (α4β7); range classes; read-out: α4β7 cell (Hu) IC50
Method: RPMI 8866 human cells (Sigma #95041316) were cultured in RPMI 1640 HEPES medium (Invitrogen #22400-089) supplemented with 10% serum (Fetal Bovine Serum, Invitrogen #16140-071), 1 mM sodium pyruvate (Invitrogen #11360-070), 2 mM L-glutamine (Invitrogen #25030-081) and Penicillin-Streptomycin (Invitrogen #15140-122) at 100 units of penicillin and 100 μg of streptomycin per ml. The cells were washed two times in DMEM medium (ATCC #30-2002) supplemented with 0.1% BSA, 10 mM HEPES pH 7 and 1 mM MnCl2. The cells were re-suspended in supplemented DMEM medium at a density of 4×10^6 cells/ml.
A Nunc MaxiSorp plate was coated with rh MAdCAM-1/Fc Chimera (R&D #6065-MC) at 200 ng per well in 50 ul per well in 1×PBS and incubated at 4° C. overnight. The solution was then removed by shaking, blocked with 250 ul per well PBS containing 1% BSA, and incubated at 37° C. for 1 hr. The solution was removed by shaking. Peptides were diluted by serial dilution in a final volume of 50 ul per well (2× concentration). To each well, 50 ul of cells (200,000 cells) were added and the plate was incubated at 37° C., 5% CO2 for 30-45 min to allow cell adhesion. The wells were washed manually three times (100 ul per wash) with supplemented DMEM. After the final wash, 100 ul/well of supplemented DMEM and 10 ul/well of MTT reagent (ATTC cat#30-1010K) were added. The plate was incubated at 37° C., 5% CO2 for 2-3 hrs until a purple precipitate was visible. 100 ul of Detergent Reagent (ATTC cat#30-1010K) was added to each well. The plate was covered from the light, wrapped in Parafilm to prevent evaporation, and left overnight at room temperature in the dark. The plate was shaken for 5 min and the absorbance at 570 nm was measured. To calculate the dose response, the absorbance value of control wells not containing cells was subtracted from each test well.

SMILES	pIC50
CC[C@H](C)[C@@H]1NC(=O)[C@H](CC(=O)O)NC(=O)[C@H](CO)NC(=O)[C@H](CCCNC(=N)N)N(C)C(=O)[C@@H](NC(C)=O)C(C)(C)SSC(C)(C)[C@@H](C(=O)N[C@@H](Cc2ccc(C(C)(C)C)cc2)C(=O)N[C@@H](CCC(=O)O)CC(=O)N[C@H](CCCCNC(=O)CN(CC(=O)NCCCC[C@@H](NC(=O)C[C@H](CCC(=O)O)NC(=O)[C@H](Cc2ccc(C(C)(C)C)cc2)NC(=O)[C@H]2NC(=O)[C@H](CC(C)C)NC(=O)[C@H]([C@@H](C)CC)NC(=O)[C@H](CC(=O)O)NC(=O)[C@H](CO)NC(=O)[C@H](CCCNC(=N)N)N(C)C(=O)[C@@H](NC(C)=O)C(C)(C)SSC2(C)C)C(N)=O)C(=O)CCN)C(N)=O)NC(=O)[C@H](CC(C)C)NC1=O [compound 186]	6.30 to 7.00
CC(=O)N[C@@H]1C(=O)N(C)[C@@H](CCCNC(=N)N)C(=O)N[C@@H](CO)C(=O)N[C@@H](CC(=O)O)C(=O)N[C@@H]([C@@H](C)O)C(=O)N[C@@H](CC(C)C)C(=O)N[C@H](C(=O)N[C@@H](Cc2c[nH]c3ccccc23)C(=O)N[C@@H](CCC(=O)O)C(=O)N[C@@H](CN)C(N)=O)C(C)(C)SSC1(C)C [compound 59] (Ac-[Pen][NMeR]SDTL[Pen]WE[Dap]-NH2; disulfide 1-7)	4.00 to 5.00
CC(=O)N[C@@H]1C(=O)N(C)[C@@H](CCCNC(=N)N)C(=O)N[C@@H](CO)C(=O)N[C@@H](CC(=O)O)C(=O)N[C@@H]([C@@H](C)O)C(=O)N[C@@H](CCC(N)=O)C(=O)N[C@H](C(=O)N[C@@H](Cc2ccc(C(C)(C)C)cc2)C(=O)N[C@@H](CCC(=O)O)CC(=O)N[C@H](CCCCNC(=O)CN(CC(=O)NCCCC[C@@H](NC(=O)C[C@H](CCC(=O)O)NC(=O)[C@H](Cc2ccc(C(C)(C)C)cc2)NC(=O)[C@H]2NC(=O)[C@H](CCC(N)=O)NC(=O)[C@H]([C@@H](C)O)NC(=O)[C@H](CC(=O)O)NC(=O)[C@H](CO)NC(=O)[C@H](CCCNC(=N)N)N(C)C(=O)[C@@H](NC(C)=O)C(C)(C)SSC2(C)C)C(N)=O)C(=O)CCN)C(N)=O)C(C)(C)SSC1(C)C [compound 187]	6.30 to 7.00
CC[C@H](C)[C@@H]1NC(=O)[C@H](CCC(N)=O)NC(=O)[C@H](CO)NC(=O)[C@H](CCCNC(=N)N)N(C)C(=O)[C@@H](NC(C)=O)C(C)(C)SSC(C)(C)[C@@H](C(=O)N[C@@H](Cc2ccc(C(C)(C)C)cc2)C(=O)N[C@@H](CCC(=O)O)CC(=O)N[C@H](CCCCNC(=O)COCC(=O)NCCCC[C@@H](NC(=O)C[C@H](CCC(=O)O)NC(=O)[C@H](Cc2ccc(C(C)(C)C)cc2)NC(=O)[C@H]2NC(=O)[C@H](CCC(N)=O)NC(=O)[C@H]([C@@H](C)CC)NC(=O)[C@H](CCC(N)=O)NC(=O)[C@H](CO)NC(=O)[C@H](CCCNC(=N)N)N(C)C(=O)[C@@H](NC(C)=O)C(C)(C)SSC2(C)C)C(N)=O)C(N)=O)NC(=O)[C@H](CCC(N)=O)NC1=O [compound 189] (I: Ac-[Pen][NMeR]SQIQ[Pen][Phe(4-tBu)][β3hE][dK]-NH2 / II: Ac-[Pen][NMeR]SQIQ[Pen][Phe(4-tBu)][β3hE][dK]-NH2; disulfide I:1-I:7, II:1-II:7; linker I:10-II:10 via Diglycolyl)	4.00 to 5.00
CC(=O)N[C@@H]1C(=O)N(C)[C@@H](CCCNC(=N)N)C(=O)N[C@@H](CO)C(=O)N[C@@H](CC(=O)O)C(=O)N[C@@H]([C@@H](C)O)C(=O)N[C@@H](CC(C)C)C(=O)N[C@H](C(=O)N[C@@H](Cc2c[nH]c3ccccc23)C(=O)N[C@H](CCC(=O)O)C(=O)N[C@H](CCCCNC(=O)CN(CC(=O)NCCCC[C@@H](NC(=O)[C@@H](CCC(=O)O)NC(=O)[C@H](Cc2c[nH]c3ccccc23)NC(=O)[C@H]2NC(=O)[C@H](CC(C)C)NC(=O)[C@H]([C@@H](C)O)NC(=O)[C@H](CC(=O)O)NC(=O)[C@H](CO)NC(=O)[C@H](CCCNC(=N)N)N(C)C(=O)[C@@H](NC(C)=O)C(C)(C)SSC2(C)C)C(N)=O)C(=O)CCN)C(N)=O)C(C)(C)SSC1(C)C [compound 70]	7.30 to 7.60
CC(=O)N[C@@H]1C(=O)N(C)[C@@H](CCCNC(=N)N)C(=O)N[C@@H](CO)C(=O)N[C@@H](CC(=O)O)C(=O)N[C@@H]([C@@H](C)O)C(=O)N[C@@H](CC(C)C)C(=O)N[C@H](C(=O)N[C@@H](Cc2c[nH]c3ccccc23)C(=O)N[C@H](Cc2ccccc2)C(=O)N[C@H](CCCCNC(=O)COCC(=O)NCCCC[C@@H](NC(=O)[C@@H](Cc2ccccc2)NC(=O)[C@H](Cc2c[nH]c3ccccc23)NC(=O)[C@H]2NC(=O)[C@H](CC(C)C)NC(=O)[C@H]([C@@H](C)O)NC(=O)[C@H](CC(=O)O)NC(=O)[C@H](CO)NC(=O)[C@H](CCCNC(=N)N)N(C)C(=O)[C@@H](NC(C)=O)C(C)(C)SSC2(C)C)C(N)=O)C(N)=O)C(C)(C)SSC1(C)C [compound 91] (I: Ac-[Pen][NMeR]SDTL[Pen]W[dF][dK]-NH2 / II: Ac-[Pen][NMeR]SDTL[Pen]W[dF][dK]-NH2; disulfide I:1-I:7, II:1-II:7; linker I:10-II:10 via Diglycolyl)	6.30 to 7.00
CC(=O)N[C@@H]1C(=O)N(C)[C@@H](CCCNC(=N)N)C(=O)N[C@@H](CO)C(=O)N[C@@H](CC(=O)O)C(=O)N[C@@H]([C@@H](C)O)C(=O)N[C@@H](CC(C)C)C(=O)N[C@H](C(=O)N[C@@H](Cc2ccc(C(=O)O)cc2)C(=O)N[C@H](CCC(=O)O)C(=O)N[C@H](CCCCNC(=O)COCC(=O)NCCCC[C@@H](NC(=O)[C@@H](CCC(=O)O)NC(=O)[C@H](Cc2ccc(C(=O)O)cc2)NC(=O)[C@H]2NC(=O)[C@H](CC(C)C)NC(=O)[C@H]([C@@H](C)O)NC(=O)[C@H](CC(=O)O)NC(=O)[C@H](CO)NC(=O)[C@H](CCCNC(=N)N)N(C)C(=O)[C@@H](NC(C)=O)C(C)(C)SSC2(C)C)C(N)=O)C(N)=O)C(C)(C)SSC1(C)C [compound 100] (I: Ac-[Pen][NMeR]SDTL[Pen][Phe(4-COOH)][dE][dK]-NH2 / II: Ac-[Pen][NMeR]SDTL[Pen][Phe(4-COOH)][dE][dK]-NH2; disulfide I:1-I:7, II:1-II:7; linker I:10-II:10 via Diglycolyl)	> 8.00
CC(=O)N[C@@H]1C(=O)N(C)[C@@H](CCCNC(=N)N)C(=O)N[C@@H](CO)C(=O)N[C@@H](CC(=O)O)C(=O)N[C@@H]([C@@H](C)O)C(=O)N[C@@H](CC(C)C)C(=O)N[C@H](C(=O)N[C@@H](Cc2c[nH]c3ccccc23)C(=O)N[C@H](Cc2c[nH]c3ccccc23)C(=O)N[C@H](CCCCNC(=O)COCC(=O)NCCCC[C@@H](NC(=O)[C@@H](Cc2c[nH]c3ccccc23)NC(=O)[C@H](Cc2c[nH]c3ccccc23)NC(=O)[C@H]2NC(=O)[C@H](CC(C)C)NC(=O)[C@H]([C@@H](C)O)NC(=O)[C@H](CC(=O)O)NC(=O)[C@H](CO)NC(=O)[C@H](CCCNC(=N)N)N(C)C(=O)[C@@H](NC(C)=O)C(C)(C)SSC2(C)C)C(N)=O)C(N)=O)C(C)(C)SSC1(C)C [compound 110] (I: Ac-[Pen][NMeR]SDTL[Pen]W[dW][dK]-NH2 / II: Ac-[Pen][NMeR]SDTL[Pen]W[dW][dK]-NH2; disulfide I:1-I:7, II:1-II:7; linker I:10-II:10 via Diglycolyl)	7.60 to 8.00
CC(=O)N[C@@H]1C(=O)N(C)[C@@H](CCCNC(=N)N)C(=O)N[C@@H](CO)C(=O)N[C@@H](CC(=O)O)C(=O)N[C@@H](CCC(C)C)C(=O)N[C@@H](CC(C)C)C(=O)N[C@H](C(=O)N[C@@H](Cc2ccc3ccccc3c2)C(=O)N[C@H](CCC(=O)O)C(N)=O)C(C)(C)SSC1(C)C [compound 161] (Ac-[Pen][NMeR]SD[hLeu]L[Pen][2Nal][dE]-NH2; disulfide 1-7)	5.00 to 6.00
CC(=O)N[C@@H]1C(=O)N(C)[C@@H](CCCNC(=N)N)C(=O)N[C@@H](CO)C(=O)N[C@@H](CC(=O)O)C(=O)N[C@@H]([C@@H](C)O)C(=O)N[C@@H](CC(C)C)C(=O)N[C@H](C(=O)N[C@@H](Cc2ccc3ccccc3c2)C(=O)N[C@H](CCCNC(=N)N)C(=O)N[C@H](CCCCNC(=O)COCC(=O)NCCCC[C@@H](NC(=O)[C@@H](CCCNC(=N)N)NC(=O)[C@H](Cc2ccc3ccccc3c2)NC(=O)[C@H]2NC(=O)[C@H](CC(C)C)NC(=O)[C@H]([C@@H](C)O)NC(=O)[C@H](CC(=O)O)NC(=O)[C@H](CO)NC(=O)[C@H](CCCNC(=N)N)N(C)C(=O)[C@@H](NC(C)=O)C(C)(C)SSC2(C)C)C(N)=O)C(N)=O)C(C)(C)SSC1(C)C [compound 120] (I: Ac-[Pen][NMeR]SDTL[Pen][2Nal][dR][dK]-NH2 / II: Ac-[Pen][NMeR]SDTL[Pen][2Nal][dR][dK]-NH2; disulfide I:1-I:7, II:1-II:7; linker I:10-II:10 via Diglycolyl)	5.00 to 6.00
CC(=O)N[C@@H]1C(=O)N(C)[C@@H](CCCNC(=N)N)C(=O)N[C@@H](CO)C(=O)N[C@@H](CC(=O)O)C(=O)N[C@@H]([C@@H](C)O)C(=O)N[C@@H](Cc2ccc(O)cc2)C(=O)N[C@H](C(=O)N[C@@H](Cc2ccc3ccccc3c2)C(=O)N[C@H](CCC(=O)O)C(N)=O)C(C)(C)SSC1(C)C [compound 164] (Ac-[Pen][NMeR]SDTY[Pen][2Nal][dE]-NH2; disulfide 1-7)	5.00 to 6.00
